Active and inactive are the calls of the source. No cut-off for these calls is given here.
How the values were obtained:
MGC-803 [1] = experiment: Induction of apoptosis in human MGC-803 cells assessed as down regulation of XIAP expression at 150 nmol/L measured after 24 hrs in presence of NEDDylation inhibitor MLN4924 by Western blot analysis; assay type: functional, cell-based
MGC-803 [2] = experiment: Induction of apoptosis in human MGC-803 cells assessed as increase in cleaved PARP expression at 150 nmol/L measured after 24 hrs in presence of NEDDylation inhibitor MLN4924 by Western blot analysis; assay type: functional, cell-based
MGC-803 [3] = experiment: Cell cycle arrest in human MGC-803 cells assessed as accumulation at S phase at 50 nmol/L measured after 48 hrs by propidium iodide staining based flow cytometry (reference value: 34.48%); assay type: functional
MGC-803 [4] = experiment: Cell cycle arrest in human MGC-803 cells assessed as accumulation at S phase at 150 nmol/L measured after 48 hrs by propidium iodide staining based flow cytometry (reference value: 34.48%); assay type: functional
MGC-803 [5] = experiment: Induction of apoptosis in human MGC-803 cells assessed as upregulation of FADD expression at 50 to 150 nmol/L measured after 48 hrs by Western blot analysis; assay type: functional, cell-based; conditions: dose 50-150 nmol/L
MGC-803 [6] = experiment: Antiproliferative activity against human MGC-803 cells measured after 48 hrs by MTT assay; assay type: functional, cell-based
MGC-803 [7] = experiment: Cell cycle arrest in human MGC-803 cells assessed as accumulation at S phase at 100 nmol/L measured after 48 hrs by propidium iodide staining based flow cytometry (reference value: 34.48%); assay type: functional
MGC-803 [8] = experiment: Induction of apoptosis in human MGC-803 cells assessed as increase in cleaved PARP expression at 50 to 150 nmol/L measured after 48 hrs by Western blot analysis; assay type: functional, cell-based; conditions: dose 50-150 nmol/L
MGC-803 [9] = experiment: Antitumor activity against human MGC-803 cells xenografted in mouse assessed as reduction in tumor weight at 150 mg/kg, sc measured after 28 days relative to control; assay type: functional; design: scale not given: the % may be the effect or the level left; conditions: time 28 day
MGC-803 [10] = experiment: Induction of apoptosis in human MGC-803 cells assessed as viable cells at 75 nmol/L measured after 48 hrs by Annexin V-FITC/propidium iodide staining based flow cytometry (reference value: 91.7%); assay type: functional; conditions: read-out: Activity
MGC-803 [11] = experiment: Induction of apoptosis in human MGC-803 cells assessed as down regulation of c-IAP1 expression at 50 to 150 nmol/L measured after 48 hrs by Western blot analysis; assay type: functional, cell-based; conditions: dose 50-150 nmol/L
MGC-803 [12] = experiment: Induction of apoptosis in human MGC-803 cells assessed as necrotic cells at 50 nmol/L measured after 48 hrs by Annexin V-FITC/propidium iodide staining based flow cytometry (reference value: 0.5%); assay type: functional
[13] = target: T1, NEDD8-activating enzyme E1 regulatory subunit (Homo sapiens) (UniProt Q13564); experiment: Activation of NAE1-mediated neddylation in human MGC-803 cells assessed as increase in Nedd8-[…] adduct formation at 50 to 150 nmol/L measured after 24 hrs by Western blot analysis; assay type: cell-based; conditions: filed as activator, dose 50-150 nmol/L
T1 sequence (whole entry): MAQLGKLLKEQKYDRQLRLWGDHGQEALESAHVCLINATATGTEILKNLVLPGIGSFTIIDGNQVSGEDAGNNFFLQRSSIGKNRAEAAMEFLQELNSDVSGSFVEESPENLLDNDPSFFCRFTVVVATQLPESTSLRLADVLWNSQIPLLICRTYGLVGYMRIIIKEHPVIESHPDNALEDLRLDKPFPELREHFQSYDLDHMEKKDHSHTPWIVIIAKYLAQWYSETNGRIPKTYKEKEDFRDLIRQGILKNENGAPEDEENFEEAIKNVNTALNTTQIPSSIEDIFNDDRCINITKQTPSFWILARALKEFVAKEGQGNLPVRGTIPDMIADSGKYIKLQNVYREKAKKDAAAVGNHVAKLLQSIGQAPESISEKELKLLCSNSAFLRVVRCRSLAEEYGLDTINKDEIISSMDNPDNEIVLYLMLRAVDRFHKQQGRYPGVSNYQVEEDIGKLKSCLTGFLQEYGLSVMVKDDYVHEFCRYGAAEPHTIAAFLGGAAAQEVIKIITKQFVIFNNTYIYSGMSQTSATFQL

MGC-803 [14] = experiment: Induction of morphological changes in human MGC-803 cells assessed as increase in cell debris at 50 to 150 nmol/L measured after 48 hrs by bright field microscopic analysis; assay type: functional, cell-based; conditions: dose 50-150 nmol/L
MGC-803 [15] = experiment: Induction of apoptosis in human MGC-803 cells assessed as early apoptotic cells at 75 nmol/L measured after 48 hrs by Annexin V-FITC/propidium iodide staining based flow cytometry (reference value: 2.2%); assay type: functional
MGC-803 [16] = experiment: Induction of apoptosis in human MGC-803 cells assessed as down regulation of c-IAP1 expression at 150 nmol/L measured after 24 hrs in presence of protein synthesis inhibitor CHX by Western blot analysis; assay type: functional, cell-based
[17] = target: T1, NEDD8-activating enzyme E1 regulatory subunit (Homo sapiens); experiment: Activation of NAE1-mediated neddylation in human MGC-803 cells assessed as increase in Nedd8-CUL1 adduct formation at 50 to 150 nmol/L measured after 24 hrs by Western blot analysis; assay type: cell-based; conditions: filed as activator, dose 50-150 nmol/L
MGC-803 [18] = experiment: Antiproliferative activity against human MGC-803 cells assessed as cell viability measured after 48 hrs by MTT assay relative to control; assay type: functional
MGC-803 [19] = experiment: Cell cycle arrest in human MGC-803 cells assessed as accumulation at G2 phase at 100 nmol/L measured after 48 hrs by propidium iodide staining based flow cytometry (reference value: 24.91%); assay type: functional
[20] = target: T1, NEDD8-activating enzyme E1 regulatory subunit (Homo sapiens); experiment: Activation of NAE1-mediated neddylation in human MGC-803 cells assessed as increase in Nedd8-[…] adduct formation at 50 to 500 nmol/L measured after 30 mins in presence of ATP by Western blot analysis; assay type: cell-based; conditions: filed as activator, dose 50-500 nmol/L
MGC-803 [21] = experiment: Cell cycle arrest in human MGC-803 cells assessed as accumulation at G1 phase at 50 nmol/L measured after 48 hrs by propidium iodide staining based flow cytometry (reference value: 40.61%); assay type: functional
MGC-803 [22] = experiment: Induction of apoptosis in human MGC-803 cells assessed as upregulation of PIDD expression at 50 to 150 nmol/L measured after 48 hrs by Western blot analysis; assay type: functional, cell-based; conditions: dose 50-150 nmol/L
MGC-803 [23] = experiment: Antitumor activity against human MGC-803 cells xenografted in mouse assessed as reduction in tumor weight at 100 mg/kg, sc measured after 28 days relative to control; assay type: functional; design: scale not given: the % may be the effect or the level left; conditions: time 28 day
MGC-803 [24] = experiment: Induction of apoptosis in human MGC-803 cells assessed as upregulation of Bax expression at 50 to 150 nmol/L measured after 48 hrs by Western blot analysis; assay type: functional, cell-based; conditions: dose 50-150 nmol/L
MGC-803 [25] = experiment: Induction of apoptosis in human MGC-803 cells assessed as viable cells at 100 nmol/L measured after 48 hrs by Annexin V-FITC/propidium iodide staining based flow cytometry (reference value: 91.7%); assay type: functional; conditions: read-out: Activity
MGC-803 [26] = experiment: Induction of apoptosis in human MGC-803 cells assessed as increase in activated caspase-2 expression at 50 to 150 nmol/L measured after 48 hrs by Western blot analysis; assay type: functional, cell-based; conditions: dose 50-150 nmol/L
MGC-803 [27] = experiment: Antitumor activity against human MGC-803 cells xenografted in mouse assessed as reduction in tumor volume at 100 to 150 mg/kg, sc measured after 28 days by caliper method; assay type: functional, organism-based; conditions: dose 100-150 mg/kg, time 28.0 day
MGC-803 [28] = experiment: Induction of apoptosis in human MGC-803 cells assessed as viable cells at 50 nmol/L measured after 48 hrs by Annexin V-FITC/propidium iodide staining based flow cytometry (reference value: 91.7%); assay type: functional; conditions: read-out: Activity

IC50 (MGC-803 [6]; MGC-803, 48 h): 90 nM | Activity [13]: Active | Activity [17]: Active | Activity [20]: Active
Structure (SMILES): COc1ccc(CN(C(=O)Cc2cccs2)c2cc(OC)c(OC)c(OC)c2)cc1
Activity (MGC-803 [1]): Active | Activity (MGC-803 [2]): inactive | Activity (MGC-803 [3]): 27.68% | Activity (MGC-803 [4]): 16.21% | Activity (MGC-803 [5]): Active | Activity (MGC-803 [6]): Dose-dependent effect | Activity (MGC-803 [7]): 21.52% | Activity (MGC-803 [8]): Active | Activity (MGC-803 [9]): 46% | viability at 0.075 µM (MGC-803 [10]): 74.4% | Activity (MGC-803 [11]): Active | Activity (MGC-803 [12]): 0.6% | Activity (MGC-803 [14]): Active | Activity (MGC-803 [15]): 12.6% | Activity (MGC-803 [16]): Active | Activity (MGC-803 [18]): 12.1% | Activity (MGC-803 [19]): 36.03% | Activity (MGC-803 [21]): 37.2% | Activity (MGC-803 [22]): Active | Activity (MGC-803 [23]): 42% | Activity (MGC-803 [24]): Active | viability at 0.1 µM (MGC-803 [25]): 32% | Activity (MGC-803 [26]): Active | Activity (MGC-803 [27]): Active | viability at 0.05 µM (MGC-803 [28]): 87.7%
